What was measured:
FcRn = FcRn (Homo sapiens, UniProt P55899); conditions: previously published peptide; similar to IgG; cited from earlier work
HepaRG hepatocytes = assay: Mitochondrial insulin stimulation test (MIST), oxygen consumption rate in HepaRG hepatocytes; type: cell-based, human; conditions: for insulin-dependent mitochondrial respiration / maximal respiration (FCCP uncoupling): HepaRG, 10-minute pretreatment with peptide (10 μM) before exposure to IR or T2D patient serum, vs cells without peptide
Method: Mitochondrial Insulin Stimulation Test. HepaRG hepatocytes or skeletal muscle cells were plated at 40,000 cells/well in Seahorse XF96 plate (Agilent) the day before the assay. Cells were serum starved by culturing in respective media without serum or growth factor supplements. Individual serum was diluted 1:100 in supplement-free media and cells were incubated with media containing individual serum for 4 hours. Cells were washed three times with PBS and incubated with seahorse assay media (buffer free RPMI with mM glucose, mM sodium pyruvate and mM glutamine) for 1 hour in a CO2 free incubation at 37° C. Seahorse measurements were performed every 5 minutes with mixing. Mitochondrial function was perturbed by administration of insulin (100 nM), oligomycin (1 μM), FCCP (2 μM), and rotenone and antimycin A (1 μM). Data was processed by normalizing basal respiration to zero and the maximal respiration following FCCP administration of the positive control (no serum exposure with insulin stimulation) to 1.
IgG purification and fragmentation. IgG purified from serum was diluted (1:100) in Protein G binding buffer (Thermo) and incubated with Protein G Agarose Beads (Thermo) for 4 hours on an orbital shaker at 4° C. Beads were washed three times with Protein G binding buffer and IgG was eluted by incubated beads in Protein G elution buffer, pH 2.7 for 5 minutes, centrifuged and the supernatant was quenched with Tris-HCl buffer, pH 9.0. Purified IgG was buffer exchanged to using 15 kDa spin column to PBS. Purification was validated by immunoblotting. Fab fragments were generated by papain cleavage using Pierce […] (Thermo Scientific) according to manufacturer's protocol.
Peptide Synthesis. SYN746 (QRFCTGHFGGLYPCHGP; SEQ ID NO: 1) and HIV TAT conjugated FcRn C-terminal tail-dominant negative ([…]; SEQ ID Nos: 2 and 3) were synthesized using Fmoc solid phase peptide synthesis and purified using preparative HPLC using aC18 reverse-phase column and characterized by liquid-chromatography mass spectrometry by University of Minnesota Peptide Synthesis Core.

FcRn, sequence (P55899 24-297 limits assumed): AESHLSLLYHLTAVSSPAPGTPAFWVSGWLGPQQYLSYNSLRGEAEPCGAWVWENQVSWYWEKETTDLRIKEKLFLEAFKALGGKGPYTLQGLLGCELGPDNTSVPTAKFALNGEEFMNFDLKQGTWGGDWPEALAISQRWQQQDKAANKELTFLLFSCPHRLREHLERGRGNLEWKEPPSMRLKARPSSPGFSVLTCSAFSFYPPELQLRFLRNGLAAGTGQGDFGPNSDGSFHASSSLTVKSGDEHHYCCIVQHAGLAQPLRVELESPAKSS
FcRn, sequence (P61769 21-119 partner): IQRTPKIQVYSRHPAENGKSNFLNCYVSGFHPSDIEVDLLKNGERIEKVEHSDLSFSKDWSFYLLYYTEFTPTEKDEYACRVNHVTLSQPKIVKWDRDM

| Sequence | binding to FcRn (FcRn) | mitochondrial function or insulin stimulation in control cells (HepaRG hepatocytes; HepaRG control cells, 10-minute pretreatment) | insulin-dependent mitochondrial respiration (HepaRG hepatocytes) | maximal respiration (FCCP uncoupling) (HepaRG hepatocytes) |
| --- | --- | --- | --- | --- |
| QRFCTGHFGGLYPCHGP (listed as Homo sapiens) [SYN746] | pH-sensitive binding | did not affect | dramatic rescue | dramatic rescue |
| YGRKKRRQRRRGAPWISLRGDDTGVLLPTP [dominant negative] |  |  | significant rescue | significant rescue |
